In patent publication US12187709B2 (Genentech, Inc., priority 2021, dated 2025):

Experiments:
[1] = molecular target: c-Cbl (Homo sapiens (Human), UniProt P22681); assay: C-Cbl LCK Ub TR-FRET assay (C-cbl Lck HTRF); assay type: biochemical
Method in brief: (§1)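 After the ubiquitination reaction, detection mixture was added and plates incubated 20 min at room temperature before reading. IC50 values were calculated with wells lacking LCK as the low control and DMSO as the high control.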

[2] = molecular target: c-Cbl (residues 47-435) (Homo sapiens (Human), UniProt P22681); assay: c-Cbl SPR assay; assay type: binding; conditions: 20° C.
Sequence of c-Cbl (residues 47-435) (P22681 47-435): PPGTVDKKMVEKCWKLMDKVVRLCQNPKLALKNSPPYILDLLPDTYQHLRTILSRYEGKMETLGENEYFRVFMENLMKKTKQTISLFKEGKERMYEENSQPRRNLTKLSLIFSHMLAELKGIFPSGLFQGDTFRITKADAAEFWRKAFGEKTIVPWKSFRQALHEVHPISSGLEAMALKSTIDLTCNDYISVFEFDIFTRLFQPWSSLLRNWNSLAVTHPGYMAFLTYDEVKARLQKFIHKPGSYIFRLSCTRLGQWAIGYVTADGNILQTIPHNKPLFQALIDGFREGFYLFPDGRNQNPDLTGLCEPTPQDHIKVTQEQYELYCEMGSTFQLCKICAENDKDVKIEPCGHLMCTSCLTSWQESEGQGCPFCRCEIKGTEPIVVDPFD
Method: (§2) Affinity of binding to Cbl-b and c-Cbl for compounds described herein was assessed by surface plasmon resonance (SPR) according to the following protocol.
(§3) A surface capture range of 1300-1500 RU of protein was used for both isoforms.
(§4) For SPR measurements, 6 concentrations with 2 fold serial dilution were measured with blanks flanking each series for double referencing. […] SPR sensorgrams were recorded in multi-cycle kinetics format, with a contact time of 60 seconds and a flow rate of 40 μl/min, the dissociation time was varied between 120-1200 seconds aiming for 4-5 half-lives of the measured interaction.
(§5) Kinetic and affinity parameters were extracted from the multicycle kinetics data fitting to a 1:1 binding model using the Biacore™ Incyte evaluation software (Cytiva).
(§6) Chaser assay utilize a single cycle kinetics SPR experiment with a contact time of 120 seconds, a flow rate of 50 μl/min and a dissociation time of 450 seconds. Single cycle kinetics titration utilized an initial blank injection and 5 concentrations with 2 fold serial dilution with a maximum concentration of 500 nM, blanked to a preceding 6 point blank single cycle kinetics injection for double referencing.
(§7) The kd is measured independently by determining the percentage unoccupied compound binding site over time by measuring the binding of a chaser compound measured by SPR.
(§8) Chaser binding was measured by a multicycle kinetics SPR experiment using a contact time of 20 seconds, a flow rate of 30 μl/min, and a dissociation time of 120 seconds. […] The % compound bound at a given time was determined by comparison to a single injection of chaser preceding the single cycle kinetics titration defined below. % Compound Bound=(1−(RUT/RUT0))*100
(§9) The % compound bound is plotted against time in seconds and fit to a single exponential, where the exponent represents the kd of the compound-protein complex. The single cycle kinetics experiment of the compound is then fit with a fixed kd determined using the chaser.

[3] = molecular target: Cbl-b (Homo sapiens (Human), UniProt Q13191); assay: Cbl-b LCK Ub TR-FRET assay (Cbl-b Lck HTRF); assay type: biochemical; conditions: for IC50: Cbl-b LCK Ub TR-FRET
Sequence of Cbl-b (Q13191 40-426): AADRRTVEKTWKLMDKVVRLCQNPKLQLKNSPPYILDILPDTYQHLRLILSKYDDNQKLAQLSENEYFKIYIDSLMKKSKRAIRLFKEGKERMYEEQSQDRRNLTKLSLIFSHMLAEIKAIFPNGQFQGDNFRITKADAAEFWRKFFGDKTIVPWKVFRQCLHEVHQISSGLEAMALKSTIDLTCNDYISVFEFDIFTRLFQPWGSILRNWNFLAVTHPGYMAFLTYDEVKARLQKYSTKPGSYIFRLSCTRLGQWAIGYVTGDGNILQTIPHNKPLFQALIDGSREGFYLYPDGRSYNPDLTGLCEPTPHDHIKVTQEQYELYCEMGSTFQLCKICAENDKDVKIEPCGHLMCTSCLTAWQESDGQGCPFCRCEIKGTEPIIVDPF
Method in brief: as §1

[4] = molecular target: Human Cbl-b (residues 40-426) (Homo sapiens (Human), UniProt Q13191); assay: Cbl-b SPR assay; assay type: binding; conditions: for Fold of selectivity: C-cbl SPR Kd vs Cbl-b SPR Kd; for Kd: SPR, 20° C.
Sequence of Human Cbl-b (residues 40-426) (Q13191 40-426): as above
Method: as §2, §3, §4, §5, §6, §7, §8, §9

[5] = ratio C-cbl Lck HTRF IC50 / Cbl-b Lck HTRF IC50

Sequence of c-Cbl (P22681 47-435): as the sequence (P22681 47-435) above

Row | Compound | IC50 [1] | Kd [2] | IC50 [3] | fold-selectivity (Cbl-b over C-cbl) [3, 5] | Fold of selectivity [4] | Kd [4] | IC50 ([3]; Example 121) | (fold-selectivity) Cbl-b and C-Cbl Selectivity [3, 5]
1 | Cn1cnnc1[C@]1(c2cccc(N3Cc4c(cc(CNC5(C)CCC5)cc4C(F)(F)F)C3=O)c2)C[C@@]2(CCCO2)C1 [Compound 341, 2-(3-((2r, 4s)-2-(4-methyl-4H-1,2,4-triazol-3-yl)-5-oxaspiro [3.4]octan-2-yl)phenyl)-6-(((1-methylcyclobutyl)amino)methyl)-4-(trifluoromethyl) isoindolin-1-one] | 100 nM | 120 nM | 13 nM | 8.4x | 11× | 11 nM |  | 
2 | Cn1cnnc1[C@@H](c1cccc(N2Cc3c(cc(CNC4(C)CCC4)cc3C(F)(F)F)C2=O)c1)C1CC(OC(F)F)C1 (single isomer, unassigned) [Compound 387] | 1000 nM | 1900 nM | 130 nM | 7.8x | 9.5× | 200 nM |  | 
3 | Cn1cnnc1C(c1cccc(N2Cc3c(cc(CNC4(C)CCC4)cc3C(F)(F)F)C2=O)c1)[C@H]1C[C@@H](Cl)C1 (single isomer, unassigned) [Compound 357] | 7.1 nM | 2.2 nM | 5.2 nM | 1.4x | 5.5× | 0.4 nM |  | 
4 | CO[C@H]1C[C@](c2cc(C3CC3)cc(N3Cc4c(cc(CNC5(C)CCC5)cc4C(F)(F)F)C3=O)c2)(c2nncn2C)C1 [Compound 226, 2-(3-cyclopropyl-5-((1r,3r)-3-methoxy-1-(4-methyl-4H-1,2,4-triazol-3-yl)cyclobutyl)phenyl)-6-(((1-methylcyclobutyl)amino)methyl)-4-(trifluoromethyl)isoindolin-1-one] | 10 nM | 4.2 nM | 11 nM | 0.99x | 3.2× | 1.3 nM |  | 
5 | CO[C@H]1C[C@H]([C@@H](c2cccc(N3Cc4c(cc(CN5CCN(C)C[C@@H]5C(C)C)cc4C(F)(F)F)C3=O)c2)c2nncn2C)C1 (single isomer, unassigned) [Compound 12] | 18 nM | 12 nM | 12 nM | (1.5x) | 5× | 2.5 nM |  | 
6 | Cn1cnnc1[C@]1(c2cccc(N3Cc4c(cc(CNC5(C)CCC5)cc4C(F)(F)F)C3=O)c2)C[C@H](F)C1 [Compound 95, 2-(3-((1s,3s)-3-fluoro-1-(4-methyl-4H-1,2,4-triazol-3-yl)cyclobutyl)-phenyl)-6-(((1-methylcyclobutyl)amino)methyl)-4-(trifluoromethyl)isoindolin-1-one] | 21 nM | 15 nM | 12 nM | 1.7x | 7.5× | 2 nM |  | 
7 | Cn1cnnc1[C@]1(c2cccc(N3Cc4c(cc(CNC5(C)CCC5)cc4C(F)(F)F)C3=O)c2)CCC(F)(F)C1 (single isomer, unassigned) [Compound 107] | 1800 nM | 1700 nM | 300 nM | 6.0x | 6.8× | 250 nM |  | 
8 | CO[C@H]1C[C@](c2cccc(N3Cc4c(cc(CNC5CC(C)(F)C5)cc4C(F)(F)F)C3=O)c2)(c2nncn2C)C1 (stereo partly drawn) [Compound 497, 6-(((3-fluoro-3-methylcyclobutyl)amino)methyl)-2-(3-((1r,3r)-3-methoxy-1-(4-methyl-4H-1,2,4-triazol-3-yl)cyclobutyl)phenyl)-4-(trifluoromethyl)isoindolin-1-one] | 24 nM | 26.6 nM |  |  | 14× | 1.9 nM | 5.2 nM | 4.7x
9 | Cn1cnnc1[C@H](C[C@H]1CCOC1)c1cccc(N2Cc3c(cc(CNC4(C)CCC4)cc3C(F)(F)F)C2=O)c1 [Compound 278, 2-(3-((R)-1-(4-methyl-4H-1,2,4-triazol-3-yl)-2-((S)-tetrahydrofuran-3-yl)ethyl)phenyl)-6-(((1-methylcyclobutyl)amino)methyl)-4-(trifluoromethyl)isoindolin-1-one] | 8900 nM | 8600 nM | 5000 nM | 1.8x | 4.8× | 1800 nM |  | 
10 | Cn1cnnc1C1(c2cccc(N3Cc4c(cc([C@H](CO)NC5(C)CCC5)cc4C(F)(F)F)C3=O)c2)CCC1 (single isomer, unassigned) [Compound 148] | 44 nM | 63 nM | 9.9 nM | 4.4x | 6.7× | 9.3 nM |  | 
11 | Cn1cnnc1[C@]1(c2cccc(N3Cc4c(cc(CNC5(C)CCC5)cc4C(F)(F)F)C3=O)c2)C[C@@]2(CCO2)C1 [Compound 109, 2-(3-((4s,6s)-6-(4-methyl-4H-1,2,4-triazol-3-yl)-1-oxaspiro[3.3]heptan-6-yl)phenyl)-6-(((1-methylcyclobutyl)amino)methyl)-4-(trifluoromethyl)isoindolin-1-one] | 220 nM | 140 nM | 47 nM | 4.6x | 7.0× | 21 nM |  | 
12 | C[C@H](NC1(C)CCC1)c1cc(Cl)c2c(c1)C(=O)N(c1cccc([C@]3(c4nncn4C)C[C@@H](F)C3)c1)C2 (single isomer, unassigned) [Compound 289] | 43 nM | 37 nM | 18 nM | 2.4x | 8.5× | 4.6 nM |  | 
13 | Cn1cnnc1[C@]1(c2cccc(N3Cc4c(cc(CNC5(C)CCC5)cc4C(F)(F)F)C3=O)c2)C[C@H](OC(F)F)C1 [Compound 335, 2-(3-((1s,3s)-3-(difluoromethoxy)-1-(4-methyl-4H-1,2,4-triazol-3-yl)cyclobutyl)phenyl)-6-(((1-methylcyclobutyl)amino)methyl)-4-(trifluoromethyl)isoindolin-1-one] | 26 nM | 45 nM | 8.8 nM | 3.0x | 17× | 2.6 nM |  | 
14 | C[C@@H]1C[C@@](c2cccc(N3Cc4c(cc(CNC5(C)CCC5)cc4C(F)(F)F)C3=O)c2)(c2nncn2C)O1 [Compound 124, 2-(3-((2R,4R)-4-methyl-2-(4-methyl-4H-1,2,4-triazol-3-yl)oxetan-2-yl)phenyl)-6-(((1-methylcyclobutyl)amino)methyl)-4-(trifluoromethyl)isoindolin-1-one] | 100 nM | 67 nM | 56 nM | 1.9x | 3.9× | 17 nM |  | 
15 | Cn1cnnc1C1(c2cccc(N3Cc4c(cc(CNC5(C)CCC5)cc4C(F)(F)F)C3=O)c2)CC2(C1)OCCO2 [Compound 293, 2-(3-(2-(4-methyl-4H-1,2,4-triazol-3-yl)-5,8-dioxaspiro[3.4]octan-2-yl)phenyl)-6-(((1-methylcyclobutyl)amino)methyl)-4-(trifluoromethyl)isoindolin-1-one] | 190 nM | 200 nM | 64 nM | 3.0x | 4.0× | 53 nM |  | 
16 | CC(C)[C@H]1CN(C)CCN1Cc1cc2c(c(C(F)(F)F)c1)CN(c1cccc(C3(c4nncn4C)CC4(COC4)C3)c1)C2=O |  | 78 nM |  |  | 14× | 5.7 nM |  | 
17 | 2-(3-((1r,3r)-3-fluoro-1-(4-methyl-4H-1,2,4-triazol-3-yl)cyclobutyl)phenyl)-6-(((1-methylcyclobutyl)amino)methyl)-4-(trifluoromethyl)isoindolin-1-one [Compound 36] |  | 170 nM |  |  | 2.8× | 59 nM |  | 
18 | 2-(3-(6-hydroxy-2-(4-methyl-4H-1,2,4-triazol-3-yl)spiro[3.3]heptan-2-yl)phenyl)-6-(((1-methylcyclobutyl)amino)methyl)-4-(trifluoromethyl)isoindolin-1-one [Compound 93] |  | 7.5 nM |  |  | 7.5× | 1 nM |  | 
19 | Cn1cnnc1C1(c2cccc(N3Cc4c(cc(CNC5(C)CCC5)cc4C(F)(F)F)C3=O)c2)CC2(CCC2)C1 |  | 20 nM |  |  | 9.5× | 2.1 nM |  | 
